# Data: the supplement of paper PMC10307832
# What was measured:
# Assay in all cases: relative viability (nuclei count vs DMSO), 5 days (fraction); higher = more cells survive
# [1] = compound: C1=CC2=NC=CN=C2C=C1/C=C/3\C(=O)NC(=O)S3 + CC1(C)CCC(c2ccc(Cl)cc2)=C(CN2CCN(c3ccc(C(=O)NS(=O)(=O)c4ccc(N[C@H](CCN5CCOCC5)CSc5ccccc5)c(S(=O)(=O)C(F)(F)F)c4)cc3)CC2)C1 [Navitoclax] (partner 0.5 µM)
# How it was run: (§1)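 Relative viability equals treated-well nuclei counts divided by vehicle-well nuclei counts. Counts came from 4× images of lung cancer cell lines grown in 1536-well plates for 5 days after pin-tool dosing on the day after seeding. Dosing used one drug alone or a fixed anchor-drug dose plus five library-drug doses (not always all listed) in √10 steps, and values are medians of duplicate plates.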
# [2] = compound: C1=CC2=NC=CN=C2C=C1/C=C/3\C(=O)NC(=O)S3 + Nc1nc2[nH]cc(CCc3ccc(C(=O)N[C@@H](CCC(=O)O)C(=O)O)cc3)c2c(=O)[nH]1 [Pemetrexed] (partner 0.2 µM)
# How it was run: as §1
# [3] = compound: C1=CC2=NC=CN=C2C=C1/C=C/3\C(=O)NC(=O)S3 + CC(C)C[C@H](NC(=O)[C@H](Cc1ccccc1)NC(=O)c1cnccn1)B(O)O [Bortezomib] (partner 0.002 µM)
# How it was run: as §1
# BGJ398 + Phenformin = compound: CCN1CCN(c2ccc(Nc3cc(N(C)C(=O)Nc4c(Cl)c(OC)cc(OC)c4Cl)ncn3)cc2)CC1 [BGJ398] + N=C(N)NC(=N)NCCc1ccccc1 [Phenformin] (partner 250 µM)
# How it was run: as §1
Cell Line,relative viability ([1]; first compound 0.02 µM),relative viability ([1]; first compound 0.06325 µM),relative viability ([1]; first compound 0.2 µM),relative viability ([1]; first compound 0.6325 µM),relative viability ([1]; first compound 2 µM),relative viability ([2]; first compound 0.02 µM),relative viability ([2]; first compound 0.06325 µM),relative viability ([2]; first compound 0.2 µM),relative viability ([2]; first compound 0.6325 µM),relative viability ([2]; first compound 2 µM),relative viability ([3]; first compound 0.02 µM),relative viability ([3]; first compound 0.06325 µM),relative viability ([3]; first compound 0.2 µM),relative viability ([3]; first compound 0.6325 µM),relative viability ([3]; first compound 2 µM),relative viability (BGJ398 + Phenformin; first compound 0.01 µM),relative viability (BGJ398 + Phenformin; first compound 0.03162 µM),relative viability (BGJ398 + Phenformin; first compound 0.1 µM),relative viability (BGJ398 + Phenformin; first compound 0.3162 µM),relative viability (BGJ398 + Phenformin; first compound 1 µM)
201T,1.18,1.26,1.19,1.21,1.18,0.316,0.346,0.363,0.348,0.312,0.979,1.1,1.1,1.08,1.03,0.45,0.444,0.457,0.382,0.386
A549,1.24,1.43,1.22,1.02,1.11,,,,,,,,,,,0.12,0.217,0.154,0.125,0.11
A-427,0.935,0.977,0.993,0.934,0.877,0.963,1.03,0.959,0.96,0.903,0.991,1.1,1.04,0.915,0.965,0.354,0.336,0.273,0.151,0.211
ABC-1,,,,,,,,,,,0.3,0.263,0.328,0.261,0.27,0.287,0.255,0.262,0.22,0.213
BEN,0.0591,0.0567,0.065,0.0608,0.0653,0.824,0.813,0.773,0.836,0.644,0.803,0.982,0.904,0.566,0.705,0.263,0.284,0.284,0.261,0.241
CAL-12T,1.3,1.13,1.09,1.24,1.49,1.03,1.31,1.34,1.09,1.28,1.05,1.06,0.921,0.97,0.966,0.542,0.621,0.599,0.579,0.642
COR-L23,0.919,1.08,1.03,0.946,0.962,0.187,0.202,0.202,0.19,0.179,0.906,0.947,0.972,0.95,0.941,0.42,0.441,0.5,0.397,0.391
COR-L 105,0.697,0.703,0.821,0.678,0.999,1.13,1.14,1.08,1.12,1.02,0.717,0.887,0.864,0.759,0.755,0.425,0.377,0.525,0.556,0.448
Calu-6,0.848,0.895,0.782,0.853,0.87,,,,,,1.03,1.1,1.22,1.1,0.98,,,,,
ChaGo-K-1,1.06,1.67,1.28,0.924,0.726,0.263,0.277,0.262,0.265,0.256,1.05,1.65,1.16,0.952,0.868,0.488,0.47,0.525,0.487,0.458
EBC-1,0.43,0.437,0.545,0.38,0.51,,,,,,0.538,0.648,0.587,0.546,0.816,,,,,
EKVX,0.931,0.865,0.916,0.957,0.822,0.337,0.356,0.363,0.438,0.364,0.906,1.07,0.969,0.911,0.871,0.216,0.211,0.235,0.234,0.209
EMC-BAC-2,1.11,1.03,1.15,1.12,1.25,0.402,0.424,0.44,0.434,0.417,1.01,1.2,1.02,0.997,0.895,0.497,0.585,0.558,0.5,0.509
EPLC-272H,1.08,1.03,1.41,1.01,1.1,0.351,0.266,0.43,0.353,0.318,0.8,1.05,0.898,0.857,0.808,0.243,0.283,0.272,0.247,0.38
H3255,0.533,0.421,0.581,0.449,0.498,0.532,0.559,0.577,0.616,0.533,0.869,0.91,0.778,0.682,0.741,0.338,,0.371,0.231,0.35
HARA,1.1,1.11,1.17,1.16,1.09,0.226,0.233,0.256,0.231,0.249,1.11,1.18,1.26,1.09,1.15,0.442,0.545,0.482,0.319,0.382
IA-LM,0.71,0.943,0.91,0.96,0.845,,,,,,0.654,0.918,0.865,0.788,0.728,,,,,
LCLC-103H,,,,,,0.464,0.438,0.473,0.448,0.447,1.08,1.05,1.06,1,0.931,0.317,0.331,0.336,0.284,0.277

Cell Line,relative viability ([1]; first compound 0.02 µM),relative viability ([1]; first compound 0.06325 µM),relative viability ([1]; first compound 0.2 µM),relative viability ([1]; first compound 0.6325 µM),relative viability ([1]; first compound 2 µM),relative viability ([2]; first compound 0.02 µM),relative viability ([2]; first compound 0.06325 µM),relative viability ([2]; first compound 0.2 µM),relative viability ([2]; first compound 0.6325 µM),relative viability ([2]; first compound 2 µM),relative viability ([3]; first compound 0.02 µM),relative viability ([3]; first compound 0.06325 µM),relative viability ([3]; first compound 0.2 µM),relative viability ([3]; first compound 0.6325 µM),relative viability ([3]; first compound 2 µM),relative viability (BGJ398 + Phenformin; first compound 0.01 µM),relative viability (BGJ398 + Phenformin; first compound 0.03162 µM),relative viability (BGJ398 + Phenformin; first compound 0.1 µM),relative viability (BGJ398 + Phenformin; first compound 0.3162 µM),relative viability (BGJ398 + Phenformin; first compound 1 µM)
LK-2,0.791,1.03,1.04,0.684,0.548,0.198,0.326,0.276,0.267,0.148,,,,,,0.268,0.295,0.255,0.18,0.271
NCI-H358,,,,,,0.166,0.18,0.177,0.186,0.181,,,,,,0.29,0.296,0.395,0.317,0.462
NCI-H522,,,,,,1,0.871,1.12,0.925,0.747,,,,,,0.585,0.599,0.692,0.593,0.603
NCI-H650,,,,,,1.03,0.996,1.02,0.864,0.659,0.977,0.775,0.907,0.78,0.379,0.419,0.442,0.512,0.458,0.391
NCI-H661,,,,,,0.94,1,0.982,0.845,0.905,0.925,0.614,0.812,0.751,0.95,0.286,0.316,0.295,0.302,0.291
NCI-H727,0.499,0.642,0.541,0.395,0.228,,,,,,0.777,0.828,0.795,0.833,0.475,0.668,0.521,0.635,0.568,0.516
NCI-H1299,1.04,1.08,1.04,1.04,1.06,,,,,,1.04,1.04,1.04,1.03,1.06,,,,,
NCI-H1395,1.13,1.42,1.21,1.17,1.02,0.965,0.779,0.975,0.867,0.732,,,,,,0.436,0.433,0.368,0.393,0.373
NCI-H1563,,,,,,0.753,0.684,0.916,0.781,0.749,0.828,0.788,0.871,0.753,0.715,0.638,0.67,0.595,0.514,0.512
NCI-H1623,,,,,,,,,,,,,,,,0.641,0.427,0.619,0.548,0.497
NCI-H1648,,,,,,0.648,0.576,0.649,,0.777,,,,,,,,,,
NCI-H1703,1.19,1.89,1.24,0.954,1,,,,,,0.288,0.322,0.38,0.474,0.489,,,,,
NCI-H1793,0.509,0.439,0.496,0.36,0.83,0.726,0.74,0.837,0.727,0.715,,,,,,0.361,0.351,0.387,0.334,0.293
NCI-H1944,1.02,1.05,1.08,0.95,1.04,0.537,0.587,0.575,0.564,0.584,,,,,,0.198,0.195,0.237,0.188,0.177
NCI-H2170,0.527,0.521,0.607,0.563,0.501,0.29,0.268,0.287,0.278,0.263,,,,,,0.374,0.428,0.448,0.393,0.341
NCI-H2342,,,,,,0.615,0.859,0.713,0.759,0.644,,,,,,0.574,0.629,0.704,0.572,0.657
SK-MES-1,,1.4,1.3,1.21,1.23,0.99,1.01,0.953,0.884,0.837,,,,,,0.584,0.691,0.677,0.589,0.593
SW 900,,,,,,0.491,0.471,0.481,,0.487,,,,,,0.639,0.702,0.559,0.196,0.279
